Test results as given in patent US20230313181A1, “HISTIDINE-LYSINE POLYMERS AND METHODS FOR DELIVERING MRNA USING THE SAME” (UNIVERSITY OF MARYLAND, BALTIMORE, priority 2019, published 2023).
“Also recorded” adds a separate entry of the source. Where no end group is shown, it is not given here.

Assays:
human cells = conditions: cited from earlier work
[1] = prior study [43]; cited from earlier work
MDA-MB-231 cells = experiment: In vitro mRNA transfection with HK polyplexes (luciferase mRNA, luciferase activity); assay type: cell-based; conditions: for RLU/μg-Protein (luciferase activity): mRNA 1 μg, 24 h; for effectiveness as carrier of mRNA (in words): luciferase mRNA, HK polyplex; for mRNA transfection relative to H3K(+H)4b (in words): 4:1 ratio (HK:mRNA)
Experimental: FIG. 1. Comparison of H3K(+H)4b and H3K4b peptides as carriers of mRNA. To form the HK polyplexes, the mRNA (1 μg) was mixed with 3 different ratios of the HK ([…]) polymer for 30 minutes. The HK polyplexes were then added to the cells for 24 h before the luciferase activity was measured. ****, H3K(+H)4b vs H3K4b, P<0.0001.
In vitro mRNA Transfection. Several HK polymers were examined for their ability to carry a luciferase-expressing mRNA (CleanCap Firefly Luciferase mRNA, Trilink Biotechnologies, Inc, San Diego, CA) into MDA-MB-231 cells (America Type Tissue Culture, Manassas, VA). In brief, 3×10^4 cells were plated into a 24-well plate containing 500 μl of DMEM and 10% fetal bovine serum (ThermoFisher Scientific, Waltham, MA). After 24 h, when the cells were 60 to 80% confluent, the media in each well was changed to Opti-MEM (ThermoFisher Scientific). To prepare HK polyplexes, mRNA (1 μg) in 50 μl of Opti-MEM was briefly mixed well with one of the HK polymers (4 to 12 μg) and maintained at room temperature for 30 min. This polyplex was then added dropwise to the cells. After four h, the Opti-MEM media was removed and replaced with 0.5 ml of DMEM/10% serum (0.5 ml). Twenty-four hours later, the cells were lysed, and the luciferase activity (Promega Corporation, Madison, WI) was measured.
To obtain the data in Table 4, luciferase-expressing mRNA (1 μg) in 50 μl of Opti-MEM was briefly mixed with one of the HK polymers (4, 8, or 12 μg) and maintained at room temperature for 30 min. The resulting polyplexes were added dropwise to the MDA-NM-231 cells and after four h, the Opti-MEM media was removed and replaced with DMEM/10% serum. Twenty-four hours later, the cells were lysed, and the luciferase activity was measured

[2] = prior studies [27]; cited from earlier work
mRNA = experiment: Heparin displacement assays (gel electrophoresis and Sybr Gold dye intercalation); assay type: physicochemical; conditions: HK:mRNA 4:1 wt/wt
Experimental: FIG. 4. Heparin Displacement Assays. After HK polyplexes were formed (wt:wt; HK:mRNA; 4 μg:1 μg), different concentrations of heparin […] were incubated with these for 30 min. A. Gel Retardation. The HK polyplexes were loaded on the agarose gel (1%), and electrophoresis was carried out and stained with Sybr Gold. B. Fluorescent dye intercalation. After the HK polyplexes were formed and incubated with several concentrations of heparin, the Sybr Gold nucleic acid dye was incubated with the HK polyplexes for 5 mins. Fluorescence was then measured by a microplate fluorimeter (λex=497 nm, λem=520 nm) (SynergyMx, BioTek). *, P<0.05; ***, P<0.001; H3K4b or H2K vs. H3K(+H)4b.
Heparin Displacement Assays. Heparin displacement assays of HK polyplexes were done with the dye intercalation assay and with gel electrophoresis. A fluorescent assay assessed polyplexes of HK polymer and mRNA (4:1 wt/wt ratio; polymer:mRNA) formed in RNAse/DNAase free water (Corning, Manassas, VA). HK polyplexes were prepared as described previously, followed by the addition of diluted Syber Gold. For detection, working dilutions of the polyplexes (1/5 of volume), water (3/5) and Sybr Gold dye (1/5, 0.2×) were incubated for 5 minutes, and fluorescence was measured by a fluorimeter (Ex=497 nm, Em=520 nm) (SynergyMx, BioTek, Winooski, VT). The control sample was prepared with the same amount of mRNA, water, and Sybr Gold dye. For the heparin displacement, instead of water, heparin salt (Sigma-Aldrich, St. Louis, MO) solutions at different concentrations (0.5, 1, 1.5, 2, 3 μg/μl) were used, and the HK polyplexes were incubated at 37° C. for 30 min before addition of Sybr Gold.
Displacement of mRNA from HK polyplexes with heparin was also done with gel electrophoresis. After HK polyplexes were formed, different concentrations of heparin (0.5, 1.0, 1.5, 2.0, 3.0 μg/μl; volume 20 μl) were incubated with these at 37° C. for 30 min. The polyplexes were then loaded on the agarose gel (1%; 10× BlueJuice Gel loading buffer), and electrophoresis was carried out and stained with SG as described above. […]

[3] = prior studies [34, 35, 45]; cited from earlier work
[4] = ratio mRNA:polymer 1:12 (wt:wt)

Row | Substance | cytotoxicity to human cells (in words) (human cells) | antimicrobial activity (in words) [1] | fold less effective in transfecting mRNA compared to H3K(+H)4b (MDA-MB-231 cells; 4:1 ratio (HK:mRNA; wt:wt)) | RLU/μg-Protein (luciferase activity) (MDA-MB-231 cells; ratio mRNA:polymer 1:4 (wt:wt)) | RLU/μg-Protein (luciferase activity) (MDA-MB-231 cells; ratio mRNA:polymer 1:8 (wt:wt)) | RLU/μg-Protein (luciferase activity) (MDA-MB-231 cells; [4]) | effectiveness as carrier of mRNA (in words) (MDA-MB-231 cells) | mRNA transfection relative to H3K(+H)4b (in words) (MDA-MB-231 cells) | carrier of DNA plasmids (in words) [2] | binding/release of mRNA and polyplex stability on exposure to heparin (in words) (mRNA) | carrier of siRNA (in words) [3]
1 | H3k4b (KHHHKHHHKHHHKHHHK; also: one of four branches on a branched lysine core) | no observed cytotoxicity to human cells | greater antimicrobial activity |  |  |  |  |  |  |  |  | 
2 | H3K(1,3+H)4b: four-branched HK polymer, each branch R = KHHHKHHHHKHHHKHHHHK- (SEQ ID NO: 14) (also: one of four branches on a branched lysine core) |  |  | about 2.5 fold | 518.3 ± 134.7 RLU/μg-Protein | 427.7 ± 18.1 RLU/μg-Protein | 378 ± 5.2 RLU/μg-Protein |  |  |  |  | 
3 | H3K(3+H)4b: four-branched HK polymer, each branch R = KHHHKHHHHKHHHKHHHK- (SEQ ID NO: 13) (also: one of four branches on a branched lysine core) |  |  |  | 61.7 ± 5.7 RLU/μg-Protein | 68.7 ± 3.1 RLU/μg-Protein | 59.0 ± 7.5 RLU/μg-Protein | poor carriers of mRNA |  |  |  | 
4 | H4K4b: four-branched HK polymer, each branch R = KHHHHKHHHHKHHHHKHHHHK- (SEQ ID NO: 11) (also: one of four branches on a branched lysine core) |  |  |  | 896.4 ± 112.6 RLU/μg-Protein | 821.8 ± 115.6 RLU/μg-Protein | 522.4 ± 69.2 RLU/μg-Protein | effective carriers of mRNA | did not enhance mRNA transfection |  |  | 
5 | H2K4b: four-branched HK polymer on three-lysine core, each branch R = KHKHHKHHKHHKHHKHHKHK- (SEQ ID NO: 5) (also: one of four branches on a three-lysine core) |  |  |  | 546.7 ± 70.1 RLU/μg-Protein | 132.3 ± 58.5 RLU/μg-Protein | 194.7 ± 18.4 RLU/μg-Protein |  |  | good carrier of large molecular weight DNA plasmids | too stable | poor carrier of relatively low molecular weight siRNA
6 | H3K(1+H)4b: four-branched HK polymer, each branch R = KHHHKHHHKHHHKHHHHK- (SEQ ID NO: 12) (also: one of four branches on a branched lysine core) |  |  |  | 24.3 ± 4.5 RLU/μg-Protein | 15.0 ± 3.6 RLU/μg-Protein | 7.3 ± 2.5 RLU/μg-Protein | poor carriers of mRNA |  |  |  | 
7 | H-H3K(+H)4b: four-branched HK polymer, each branch R = HKHHHKHHHKHHHHKHHHK- (SEQ ID NO: 9) (also: one of four branches on a branched lysine core) |  |  |  | 1107.5 ± 140.4 RLU/μg-Protein | 874.6 ± 65.2 RLU/μg-Protein | 676.4 ± 25.7 RLU/μg-Protein | effective carriers of mRNA; also recorded: markedly more effective as a carrier of mRNA | did not improve mRNA transfection more than H3K(+H)4b |  |  | 
